Experimental data reported in patent US11351134B2, “Small molecule agents, compositions, and formulations, for internal use, displaying inhibitory activity against gram-positive and/or gram-negative organisms” (NATUREZA, INC., priority 2017, dated 2022).
Like-named read-outs stand apart in the source and are kept apart here.

Columns and labels:
[1] = test system: E. coli; test: Broth microdilution MIC of lecithin/chitosan particle compositions; assay type: cell-based; settings: maximum concentration tested 10 mg/ml; for MIC: Escherichia coli
Experimental: (§1) Initially, to determine basic characteristics, each active component was separately mixed, generally under agitated conditions, with water, and each was miscible with water. Each, after being mixed with water, was tested in a broth microdilution assay, against a variety of bacteria using amounts of the each of the lauric acid derivatives, ranging from about 0.0009 wt. % to about 8 wt. %. The bacteria included Escherichia coli, and Staphylococcus aureus (including MRSA strains). The minimum inhibitory concentration (MIC) needed to prevent growth of the target bacteria was evaluated based on a method published by Clinical Laboratory Standards Institute (CLSI), broth microdilution method M-07 (M07). […] Each of the samples containing one of the lauric acid derivatives was compared with a positive control, decanoic acid.
(§2) For TABLES 1 to 3, compositions were generally prepared as described above, and as further outlined in this paragraph. For these examples, the active component, as a lauric acid derivative or lauric acid, was suspended in an organic solvent, chloroform, and then mixed with water, under robust agitation. The amount of water to the amount of chloroform was at least about 2:1, and could be as high as 10:1. Chloroform was then evaporated (e.g., under vacuum using a freeze dryer). After removal of the chloroform, a 2.2% lecithin solution in an acetate buffer (e.g., 98 mM acetic acid and 2 mM sodium acetate) was prepared and added, so the final amount of the active component was about 1 part active component mixture and about 9 parts of the 2.2% lecithin solution. Of course, it is noted that other ranges to achieve final amount of the active component as described above (e.g., active component mixture and lecithin solution) may also be utilized. Cholesterol could also be optionally added. The mixture of lecithin and the active component was mixed and sonicated, and then a solution of about 1.5% chitosan was added. Thereafter, the entirety of the mixture containing the lecithin and the active component was further blended, in which a final ratio was about 1 part active component to about 9 parts of the 2.2% lecithin solution to about 10 parts of the 1.5% chitosan solution. The pH was then varied, to a pH of 5, or a pH of 7, or a pH of 9. In some mixtures having a pH of 7, a chemical agent imparting a positive charge to the chitosan was included in a form of glycol chitosan. In these tests, the chemical agent used was glycol. In these examples, the amount of chemical agent, glycol was about one molecule glycol moiety to one molecule chitosan sacharide unit; higher amounts of glycol moieties are also acceptable, while lower amounts of glycol moieties were often found to decrease overall inhibitory activity associated with a composition when formed and tested in vitro. It is noted that negatively charged chitosan containing particles were prepared. […] After mixing, the mixtures could each be filtered through a […] filter. In some tests, the mixtures were sonicated before filtering. Sonication produced small particles. In some studies, particles were freeze dried as a powder (generally, after mixing, sonicating and filtering).
(§3) The positive controls were prepared and evaluated in a similar manner. All prepared samples were tested using a broth microdilution test.

[2] = test system: S. epidermidis; test: as above; assay type: cell-based; settings: Staphylococcus epidermidis; lecithin/chitosan particle composition; prep. mixture pH 5 or pH 7; maximum concentration tested 10 mg/ml; read-out: MIC (mg/ml) for S. epidermidis (chitosan prep. mixture was at pH 5 or at pH 7)
Experimental: as §1, §2, §3

[3] = assay type: in vivo; settings: mice, oral capsules approximately 4 mg active component in chitosan-containing particles, three times per day for seven days
From the text: Laboratory trials have shown that no resistance has developed in pathogens exposed to the compositions described herein, even with long term, repeated exposure (data not shown). In addition, no intrinsic resistance can or has been detected in target pathogens. […] A placebo group is also included, in which a group of 10 mice are given a placebo set of capsules, orally, three times per day and continued for seven days, each of the placebo set of capsules containing similarly prepared chitosan-containing particles without an active component, the preparation being generally as described herein. Initial mice have been infected with Salmonella typhimurium prior to oral delivery of one of the set of capsules. The capsules may be vegetable capsules. The capsules may have an enteric coating. For delivery, a formulation may be prepared in a manner understood in the relevant art. For delivery, a formulation may be in at least any one or more of the following forms: liquid, capsule, dried powder, mist, and the like. For delivery, the formulation will contain pharmaceutical grade materials, including one or more excipients and or fillers for internal and/or topical delivery in sufficient amounts known to those of skill in the relevant art. Flavors, colors, sugars, sugar-substitutes, and the like may also be included in any of the formulations, as is understood to those of skill in the relevant art.

In the case of `COC(=O)CCCCCCCCCCCN.Cl` [12-amino-1-dodecanoic acid methyl ester HCl], the MIC ([1]; lecithin/chitosan particle composition, prep. mixture pH 9, read-out: MIC (mg/ml) for E. coli (chitosan prep. mixture was at pH 9)) is reported as 10 mg/mL, the MIC ([1]; lecithin/glycol chitosan particle composition, prep. mixture pH 7, read-out: MIC (mg/ml) for E. coli (chitosan prep. mixture was at pH 7 with glycol chitosan)) is reported as 0.8 mg/mL and the “MIC (mg/ml) for E. coli (chitosan prep. mixture was at pH 5 or at pH 7)” value ([1]; lecithin/chitosan particle composition, prep. mixture pH 5 or pH 7) is reported as “— (no inhibitory activity)”. The MIC [2] was 10 mg/mL and the “Safety in animal trials” value [3] was “no safety concerns”.
